Reference: patent publication US9862746B2, “Compositions and methods relating to hindering DOT1L recruitment by MLL-fusion proteins” (The Regents of the University of Michigan, priority 2013, dated 2018)
Where a SMILES comes first, the peptide text is derived from it. Where no end group is shown, it is not given here.

Columns and labels:
ENL = molecular target: T1, ENL (Homo sapiens, UniProt Q03111); experiment: Solution competitive SPR assay of peptides, ENL-DOT1L interaction; assay type: binding; conditions: read-out: IC50 against ENL (block PPI DOT1L/ENL)
T1 construct: against AF9(497-568) and ENL (489-559) proteins running different tested concentrations over CM5 chip; MBP (pMSCG9-LIC vector); made in house; host or cells: Escherichia coli BL21 (DE3)
T1 sequence (Q03111 489-559): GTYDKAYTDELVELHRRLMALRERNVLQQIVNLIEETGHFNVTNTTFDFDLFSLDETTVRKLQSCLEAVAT
Experimental: (§1) Solution competitive SPR based assay was performed to determine the IC50 values of DOT1L peptides. […] Response units (RU) were measured at 15 seconds in the dissociation phase and the specific binding was calculated by subtracting the control surface (Fcl) signal from the surfaces with immobilized Mocr-DOT1L. IC50 values were determined by non-linear least squares analysis using Graph Pad Prism 5.0 software.

MBP-ENL (489-559) = molecular target: T2, MBP-ENL (489-559) (Homo sapiens, UniProt Q03111); experiment: Isothermal titration calorimetry with MBP-ENL; assay type: binding; conditions: ITC, MBP-tagged ENL, 1:1 stoichiometry; read-out: KD to ENL protein
T2 construct: MBP-ENL (489-559) was dialysed extensively; made in house; host or cells: Escherichia coli BL21 (DE3)
T2 sequence (Q03111 489-559): T1 sequence (Q03111 489-559)
Experimental: (§2) Isothermal titration calorimetry—ITC was carried out using a Nano-ITC Micro Calorimeter (TA Instruments) at 20° C. MBP-ENL (489-559) was dialysed extensively against 50 mM Na2HPO4, (pH 7.5) and 100 mM NaCl, and 80 μM was used for titration studies of DOT1L 16-mer and 10-mer peptides, and 110 μM for DOT1L 7-mer titration. Tested peptides dissolved in the same buffer at 400 μM (DOT1L 16-mer and 10-mer) or 500 μM (DOT1L 7-mer) were tested by injecting 2 μl aliquots into the protein sample, at time intervals of […], to ensure that the titration peak returned to the baseline. The ITC data were analyzed by NanoAnalyze software package using a one site-binding model.

[1] = molecular target: T3, Flag-DOT1L and Myc-CxxC-AF9 interaction (Homo sapiens, UniProt P42568+Q03164); experiment: Co-immunoprecipitation in HEK 293 cell lysate; assay type: binding; conditions: HEK 293 whole cell lysate pre-incubated with peptide
T3 construct: expressed in transfected cells; host or cells: HEK 293
Experimental: (§3) To assess whether DOT1L 10-mer peptide can bind and block the interaction between full length DOT1L and MLL-fusion proteins HEK 293 cells were transiently co-transfected ith Flag-tagged human DOT1L protein and Myc-tagged CxxC-AF9 protein. The whole cell lysate was pre-incubated with different concentrations of DOT1L 10-mer peptide and co-immunoprecipitation (co-IP) experiments were performed. […] To further probe and confirm the cellular target for DOT1L 10-mer peptide, a biotinylated DOT1L 10-mer peptide was synthesized. To determine the binding affinity of this labeled peptide FP competitive based assay was used and tested together with corresponding unlabeled DOT1L 10 mer peptide.
Cell Culture, Transfections, and Immunoprecipitation—HEK293 cells were plated in 100 mm culture dishes and cultured in Dulbecco's modified Eagle's medium (DMEM) supplemented with 10% FBS and antibiotics. Co-transfection with FLAG-DOTL and Myc-CxxC-AF9 was performed using Lipofectamine 2000 (Invitrogen). […] After incubation, the beads were washed extensively, boiled in SDS loading buffer and analyzed by western blotting using mouse monoclonal anti-FLAG M2 (Sigma-Aldrich) and goat monoclonal anti-Myc tag (Abcam) antibody.

AF9 [2] = molecular target: T4, AF9 (Homo sapiens, UniProt P42568); experiment: Optimized competitive FP binding assay (N-Flu-DOT1L / AF9); design: the recombinant GB1-AF9 protein (residues 497-568); made in house; host or cells: Escherichia coli BL21 (DE3)
T4 sequence (P42568 497-568): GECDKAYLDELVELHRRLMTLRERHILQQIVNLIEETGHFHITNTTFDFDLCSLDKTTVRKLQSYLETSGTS

AF9 [3] = molecular target: T4, AF9; experiment: Solution competitive SPR assay of peptides, AF9-DOT1L interaction; assay type: binding; design: against AF9(497-568) and ENL (489-559) proteins running different tested concentrations over CM5 chip; GB1 (pGB1-LIC vector); made in house; host or cells: Escherichia coli BL21 (DE3); conditions: read-out: IC50 against AF9 (block PPI DOT1L/AF9)
Experimental: as §1

MBP tag = MBP tag (Escherichia coli, UniProt P0AEX9); experiment: Isothermal titration calorimetry with MBP tag only; assay type: binding; conditions: ITC
Experimental: FIG. 4 describes isothermal titration calorimetry (ITC) of MBP tag only (80 μM) with a solution of DOT1L 16-mer (400 μM). The raw data are shown in the upper panel, and the integrated heat data are shown in the lower panel.
as §2

Myc-CxxC-AF9 = molecular target: T5, Myc-CxxC-AF9 (Homo sapiens, UniProt P42568+Q03164); experiment: Streptavidin-biotin pull-down in HEK 293 cell lysate; assay type: binding; conditions: HEK 293 cell lysates
T5 construct: expressed in transfected cells; host or cells: HEK293
Experimental: as §3
Pull-down assay—HEK293 cells transfected with Myc-CxxC-AF9 were lysed in BC-300 lysis buffer in a same way as the immunoprecipitation experiment. The supernatant was pre-cleared for 2 h in streptavidin agarose beads (Thermal Scientific). The pre-cleared lysates were incubated with different concentrations of biotin-labeled DOT1L 10 mer peptide at 4° C. overnight. The next day, the cell lysate were incubated with streptavidin agarose at 4° C. for 2 h. After extensive washing the beads with the BC-300 lysis buffer without NP-40, the pull down samples were applied to SDS-PAGE electrophoresis and pull-down Myc-CxxC-AF9 protein was probed with goat monoclonal anti-Myc tag antibody (Abcam).

T3 sequence (Q03164+P42568 fused): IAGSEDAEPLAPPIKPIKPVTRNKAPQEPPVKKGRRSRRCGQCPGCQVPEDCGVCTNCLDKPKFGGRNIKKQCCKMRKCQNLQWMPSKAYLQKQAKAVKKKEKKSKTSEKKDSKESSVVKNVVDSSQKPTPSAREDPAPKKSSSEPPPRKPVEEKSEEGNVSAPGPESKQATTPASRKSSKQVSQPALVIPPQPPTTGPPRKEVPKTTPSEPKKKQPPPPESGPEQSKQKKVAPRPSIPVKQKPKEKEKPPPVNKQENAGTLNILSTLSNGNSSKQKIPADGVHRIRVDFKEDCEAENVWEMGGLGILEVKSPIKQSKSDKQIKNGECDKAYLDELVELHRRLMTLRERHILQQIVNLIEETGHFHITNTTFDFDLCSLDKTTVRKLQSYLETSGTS
T5 sequence (Q03164+P42568 fused): as above

Compound | IC50 (ENL) [nM] | Kd (MBP-ENL (489-559)) [nM] | disruption of DOT1L / CxxC-AF9 interaction (co-IP) [1] | Ki (AF9 [2]) [nM] | IC50 (AF9 [3]) [nM] | binding to the MBP tag only (MBP tag) | binding to cellular CxxC-AF9 (pull-down) (Myc-CxxC-AF9)
CC[C@H](C)[C@H](NC(=O)[C@@H]1CCCN1C(=O)[C@H](CC(C)C)NC(C)=O)C(=O)N[C@@H](CO)C(=O)N[C@H](C(=O)N1CCC[C@H]1C(=O)N[C@@H](CC(C)C)C(=O)N[C@@H](CO)C(=O)N[C@H](C(=O)N[C@H](C(N)=O)C(C)C)[C@@H](C)O)[C@@H](C)CC [DOT1L 10mer] (Ac-LPISIPLSTV-NH2) | 1340 | 1100 | blocks the interaction of cellular DOT1L with CxxC-AF9 in a dose dependent manner | 68 ± 15 | 490 | – | –
CC[C@H](C)[C@H](NC(=O)[C@@H]1CCCN1C(=O)[C@H](CC(C)C)NC(C)=O)C(=O)N[C@@H](CO)C(=O)N[C@H](C(=O)N1CCC[C@H]1C(=O)N[C@@H](CC(C)C)C(=O)N[C@@H](CO)C(=O)N[C@H](C(=O)N[C@H](C(=O)N[C@@H](CCC(N)=O)C(=O)N1CCC[C@H]1C(=O)N[C@@H](CC(N)=O)C(=O)N[C@@H](CCCCN)C(=O)N[C@@H](CC(C)C)C(=O)N1CCC[C@H]1C(N)=O)C(C)C)[C@@H](C)O)[C@@H](C)CC [DOT1L 16 mer] (Ac-LPISIPLSTVQPNKLP-NH2) | 1560 | 900 | – | 80 | 320 | did not show any binding | –
biotinylated DOT1L 10-mer peptide: DOT1L 10-mer peptide with N-terminal biotin group (LPISIPLSTV-NH2; not fully specified (N-terminus); also: N-terminal biotin coupled to lysine and two β-alanine spacer, order not given here) | – | – | – | – | – | – | recognizes and binds to the cellular CxxC-AF9 protein in a dose dependent manner
